Reference: patent publication US20260001879A1, “COMPOUNDS AS MYT1 INHIBITORS” (WIGEN BIOMMEDICINE TECHNOLOGY (SHANGHAI) CO., LTD., priority 2022, published 2026)

Target: recombinant protein MYT1 (Homo sapiens (Human), UniProt Q99640)
Assay: In vitro assay for inhibiting MYT1 kinase activity (ADP-GLO)
Assay type: biochemical
Conditions: 10 μM ATP, read-out: Inhibitory activity against recombinant protein MYT1 IC50
Procedure: Recombinant MYT1 protein and the compounds were pre-incubated at room temperature for 15 min, and 10 μM ATP was then added to start the reaction. The mixture was incubated at room temperature for another 60 min, and the ADP-GLO reagent from Promega was then added. The resulting mixture was incubated in the dark for 40 min, a detection solution was then added, and the mixture was incubated for another 45-60 min. The chemiluminescence was determined using ENVISION. The inhibition rate and IC50 were calculated compared to the DMSO group.

Chain of recombinant protein MYT1 (Q99640 whole entry): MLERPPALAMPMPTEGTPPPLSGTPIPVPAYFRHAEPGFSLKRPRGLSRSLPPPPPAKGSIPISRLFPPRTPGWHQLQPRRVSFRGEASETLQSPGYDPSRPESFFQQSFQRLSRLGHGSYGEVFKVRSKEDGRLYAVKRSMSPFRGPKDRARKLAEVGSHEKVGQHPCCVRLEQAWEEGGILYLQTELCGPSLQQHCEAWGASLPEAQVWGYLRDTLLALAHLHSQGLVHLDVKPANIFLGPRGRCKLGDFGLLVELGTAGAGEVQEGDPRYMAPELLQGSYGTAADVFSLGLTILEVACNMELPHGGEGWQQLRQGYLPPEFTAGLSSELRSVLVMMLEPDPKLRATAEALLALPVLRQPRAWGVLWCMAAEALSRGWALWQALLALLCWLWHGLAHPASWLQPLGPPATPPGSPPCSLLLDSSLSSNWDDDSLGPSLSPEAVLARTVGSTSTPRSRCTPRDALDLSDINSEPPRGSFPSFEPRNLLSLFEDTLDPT

Row | SMILES | IC50 [µM]
1 | Cc1cc2c(C(N)=O)c(N)n(-c3c(C)ccc(O)c3C)c2cc1C#N [Compound 157] | ≤ 0.2
2 | Cc1ccc(O)c(C(F)(F)F)c1-n1c(N)c(C(N)=O)c2cc(C#N)c(C)nc21 [Compound 181] | ≤ 0.2
3 | Cc1nc2c(cc1C#N)c(C(N)=O)c(N)n2-c1c(C(F)(F)F)ccc(O)c1C [Compound 184] | ≤ 0.2
4 | Cc1ccc(O)c(C)c1-n1c(N)c(C(N)=O)c2cc3nc[nH]c3nc21 [Compound 64] | ≤ 0.2
5 | Cc1ccc(O)c(C)c1-n1c(N)c(C(N)=O)c2cc3c(nc21)N(C)CC3 [Compound 90] | ≤ 0.2
6 | Cc1c(O)cc(F)c(C)c1-n1c(N)c(C(N)=O)c2cc3c(nc21)CCC3 [Compound 199] | ≤ 0.2
7 | Cc1ccc(O)c(C)c1-n1c(N)c(C(N)=O)c2cc3c(nc21)N(C)CCC3 [Compound 105] | ≤ 0.2
8 | Cc1cc2c(C(N)=O)c(N)n(-c3c(C)c(C)cc(O)c3C)c2nc1C [Compound 205] | ≤ 0.2
9 | Cc1cc(F)c(O)c(C)c1-n1c(N)c(C(N)=O)c2cc3ccccc3nc21 [Compound 180] | ≤ 0.2
10 | Cc1cc2c(C(N)=O)c(N)n(-c3c(C)cc(F)c(O)c3C)c2nc1C (single isomer, unassigned) [Compound 5] | ≤ 0.2
11 | Cc1cc2c(C(N)=O)c(N)n(-c3c(C)c(O)cc(F)c3Cl)c2nc1C [Compound 24] | ≤ 0.2
12 | Cc1cc2c(C(N)=O)c(N)n(-c3c(C)cc(F)c(O)c3Cl)c2nc1C [Compound 8] | ≤ 0.2
13 | Cc1cc2c(C(N)=O)c(N)n(-c3c(C)cnc(O)c3C)c2nc1C [Compound 177] | ≤ 0.2
14 | Cc1cc2c(C(N)=O)c(N)n(-c3c(C)c(F)cc(O)c3Cl)c2nc1C [Compound 25] | ≤ 0.2
15 | Cc1ccc(O)c(C)c1-n1c(N)c(C(N)=O)c2cc3c(nc21)COCC3 [Compound 32] | ≤ 0.2
16 | Cc1cc2c(C(N)=O)c(N)n(-c3c(C)cc(F)c(O)c3C)c2nc1C#N [Compound 146] | ≤ 0.2
17 | Cc1cc2c(cc1C#N)c(C(N)=O)c(N)n2-c1c(C)ccc(O)c1C [Compound 154] | ≤ 0.2
18 | Cc1ccc(O)c(C)c1-n1c(N)c(C(N)=O)c2cc3c(nc21)COC3 [Compound 15] | ≤ 0.2
19 | Cc1cc2c(cc1C#N)c(C(N)=O)c(N)n2-c1c(C)c(O)cc(F)c1C [Compound 160] | ≤ 0.2
20 | Cc1cc2c(C(N)=O)c(N)n(-c3c(C)ccc(O)c3C)c2c(C#N)c1C [Compound 173] | ≤ 0.2
21 | Cc1ccc(O)c(C)c1-n1c(N)c(C(N)=O)c2cc3ncsc3nc21 [Compound 69] | ≤ 0.2

Row | SMILES | IC50 [µM]
22 | Cc1ccc(O)c(C)c1-n1c(N)c(C(N)=O)c2cc3nccnc3cc21 [Compound 60] | ≤ 0.2
23 | Cc1cc2c(C(N)=O)c(N)n(-c3c(C)cc(F)c(O)c3C)c2cc1C#N [Compound 169] | ≤ 0.2
24 | Cc1ccc(O)c(C)c1-n1c(N)c(C(N)=O)c2cc3ocnc3nc21 [Compound 68] | ≤ 0.2
25 | Cc1ccc(O)c(C)c1-n1c(N)c(C(N)=O)c2cc3c(nc21)OCC3 [Compound 20] | ≤ 0.2
26 | Cc1ccc(O)c(C)c1-n1c(N)c(C(N)=O)c2cc3c(nc21)CC=C3 [Compound 106] | ≤ 0.2
27 | Cc1ccc(O)c(C)c1-n1c(N)c(C(N)=O)c2cc3c(nc21)CCN(C)C3 [Compound 96] | ≤ 0.2
28 | Cc1cc(F)c(O)c(C)c1-n1c(N)c(C(N)=O)c2cc3c(nc21)COC3 [Compound 134] | ≤ 0.2
29 | Cc1ccc(O)c(C)c1-n1c(N)c(C(N)=O)c2cc3cnncc3cc21 [Compound 59] | ≤ 0.2
30 | Cc1ccc(O)c(C)c1-n1c(N)c(C(N)=O)c2cc3c(nc21)OCO3 [Compound 38] | ≤ 0.2
31 | Cc1ccc(O)c(C)c1-n1c(N)c(C(N)=O)c2cc3c(nc21)CCN3C [Compound 87] | ≤ 0.2
32 | Cc1cc2c(C(N)=O)c(N)n(-c3c(C)c(O)cc(F)c3C)c2cc1C#N [Compound 166] | ≤ 0.2
33 | Cc1ccc(O)c(C)c1-n1c(N)c(C(N)=O)c2cc3ncoc3nc21 [Compound 67] | ≤ 0.2
34 | Cc1ccc(O)c(C)c1-n1c(N)c(C(N)=O)c2cc3occc3nc21 [Compound 62] | ≤ 0.2
35 | Cc1ccc(O)c(C)c1-n1c(N)c(C(N)=O)c2cc3cscc3nc21 [Compound 76] | ≤ 0.2
36 | Cc1ccc(O)c(C)c1-n1c(N)c(C(N)=O)c2cc3c(nc21)CC=CC3 [Compound 113] | ≤ 0.2
37 | Cc1ccc(O)c(C)c1-n1c(N)c(C(N)=O)c2cc3ncccc3nc21 [Compound 50] | ≤ 0.2
38 | Cc1cc2c(C(N)=O)c(N)n(-c3c(C(F)(F)F)ccc(O)c3C)c2nc1C#N [Compound 186] | ≤ 0.2
39 | Cc1cc2c(C(N)=O)c(N)n(-c3c(C)c(O)cc4c3CCO4)c2nc1C [Compound 121] | ≤ 0.2
40 | Cc1ccc(O)c(C)c1-n1c(N)c(C(N)=O)c2cc3c(nc21)C=CC3 [Compound 109] | ≤ 0.2
41 | Cc1cc2c(C(N)=O)c(N)n(-c3c(Cl)cc(F)c(O)c3C)c2nc1C [Compound 4] | ≤ 0.2
42 | Cc1ccc(O)c(C)c1-n1c(N)c(C(N)=O)c2cc3cocc3nc21 [Compound 63] | ≤ 0.2

Row | SMILES | IC50 [µM]
43 | Cc1ccc(O)c(C)c1-n1c(N)c(C(N)=O)c2cc3c(nc21)CCCO3 [Compound 26] | ≤ 0.2
44 | Cc1ccc(O)c(C)c1-n1c(N)c(C(N)=O)c2cc3ccoc3nc21 [Compound 61] | ≤ 0.2
45 | Cc1c(O)cc(F)c(C)c1-n1c(N)c(C(N)=O)c2cc3c(nc21)CC=C3 [Compound 211] | ≤ 0.2
46 | Cc1ccc(O)c(C)c1-n1c(N)c(C(N)=O)c2cc3c(nc21)NCC3 [Compound 80] | ≤ 0.2
47 | Cc1ccc(O)c(C)c1-n1c(N)c(C(N)=O)c2cc3ccn(C)c3nc21 [Compound 71] | ≤ 0.2
48 | Cc1cc2c(C(N)=O)c(N)n(-c3c(C)c(O)cc4c3CCC4)c2nc1C [Compound 115] | ≤ 0.2
49 | Cc1c(O)cc(F)c(C)c1-n1c(N)c(C(N)=O)c2cc3ccccc3nc21 [Compound 179] | ≤ 0.2
50 | Cc1cc2c(C(N)=O)c(N)n(-c3c(C)c(O)cc4c3COC4)c2nc1C [Compound 124] | ≤ 0.2
51 | Cc1cc2c(C(N)=O)c(N)n(-c3c(C)c(O)cc(C#N)c3C)c2nc1C [Compound 220] | ≤ 0.2
52 | Cc1ccc(O)c(C)c1-n1c(N)c(C(N)=O)c2cc3c(nc21)CCOC3 [Compound 29] | ≤ 0.2
53 | Cc1ccc(O)c(C)c1-n1c(N)c(C(N)=O)c2cc3ncn(C)c3nc21 [Compound 65] | ≤ 0.2
54 | Cc1c(O)cc(F)c(C)c1-n1c(N)c(C(N)=O)c2cc3c(nc21)COC3 [Compound 131] | ≤ 0.2
55 | Cc1ccc(O)c(C)c1-n1c(N)c(C(N)=O)c2cc3cnncc3nc21 [Compound 56] | ≤ 0.2
56 | Cc1cc2c(C(N)=O)c(N)n(-c3c(C)c(O)cc(Cl)c3C)c2nc1C [Compound 193] | ≤ 0.2
57 | Cc1cc2c(cc1C#N)c(C(N)=O)c(N)n2-c1c(C)cc(F)c(O)c1C [Compound 163] | ≤ 0.2
58 | Cc1ccc(O)c(C)c1-n1c(N)c(C(N)=O)c2cc3c(nc21)CCC=C3 [Compound 112] | ≤ 0.2
59 | Cc1ccc(O)c(C)c1-n1c(N)c(C(N)=O)c2cc3cnccc3nc21 [Compound 47] | ≤ 0.2
60 | Cc1cc2c(C(N)=O)c(N)n(-c3c(C)c(O)cc(F)c3C)c2nc1C (single isomer, unassigned) [Compound 1] | ≤ 0.2
61 | Cc1ccc(O)c(C)c1-n1c(N)c(C(N)=O)c2cc3ccsc3nc21 [Compound 74] | ≤ 0.2
62 | Cc1ccc(O)c(C)c1-n1c(N)c(C(N)=O)c2cc3c(nc21)CCCN3C [Compound 104] | ≤ 0.2
63 | Cc1ccc(O)c(C)c1-n1c(N)c(C(N)=O)c2cc3c(nc21)CCCN3 [Compound 102] | ≤ 0.2

Row | SMILES | IC50 [µM]
64 | Cc1cc2c(C(N)=O)c(N)n(-c3c(C)c(O)cc4c3OCC4)c2nc1C [Compound 118] | ≤ 0.2
65 | Cc1ccc(O)c(C)c1-n1c(N)c(C(N)=O)c2cc3scnc3nc21 [Compound 70] | ≤ 0.2
66 | Cc1ccc(O)c(C)c1-n1c(N)c(C(N)=O)c2cc3c(nc21)CN(C)CC3 [Compound 99] | ≤ 0.2
67 | Cc1nc2c(cc1C#N)c(C(N)=O)c(N)n2-c1c(C)c(O)cc(F)c1C [Compound 137] | ≤ 0.2
68 | Cc1ccc(O)c(C)c1-n1c(N)c(C(N)=O)c2cc3c(ccn3C)nc21 [Compound 72] | ≤ 0.2
69 | Cc1cc2c(C(N)=O)c(N)n(-c3c(C)c(O)cc4occc34)c2nc1C [Compound 129] | ≤ 0.2
70 | Cc1c(O)cc(F)c(C)c1-n1c(N)c(C(N)=O)c2cc3c(nc21)CCCC3 [Compound 202] | ≤ 0.2
71 | Cc1ccc(O)c(C)c1-n1c(N)c(C(N)=O)c2cc3sccc3nc21 [Compound 75] | ≤ 0.2
72 | Cc1cc2c(C(N)=O)c(N)n(-c3c(C)ccc(O)c3C(F)(F)F)c2nc1C#N [Compound 187] | ≤ 0.2
73 | Cc1cc(F)c(O)c(C)c1-n1c(N)c(C(N)=O)c2cc(C#N)c(C)nc21 [Compound 140] | ≤ 0.2
74 | Cc1ccc(O)c(C)c1-n1c(N)c(C(N)=O)c2cc3cn(C)cc3nc21 [Compound 73] | ≤ 0.2
75 | Cc1ccc(O)c(C)c1-n1c(N)c(C(N)=O)c2cc(C#N)c(C)nc21 [Compound 9] | ≤ 0.2
76 | Cc1ccc(O)c(C)c1-n1c(N)c(C(N)=O)c2cc3cccnc3nc21 [Compound 41] | ≤ 0.2
77 | Cc1c(O)cc(F)c(C)c1-n1c(N)c(C(N)=O)c2cc3c(nc21)C=CC3 [Compound 214] | ≤ 0.2
78 | Cc1ccc(O)c(C)c1-n1c(N)c(C(N)=O)c2cc3nccnc3nc21 [Compound 53] | ≤ 0.2
79 | Cc1cc2c(C(N)=O)c(N)n(-c3c(C)c(O)cc(I)c3C)c2nc1C [Compound 217] | ≤ 0.2
80 | Cc1cc2c(C(N)=O)c(N)n(-c3c(C)c(O)cc(C(F)(F)F)c3C)c2nc1C [Compound 208] | ≤ 0.2
81 | Cc1ccc(O)c(C)c1-n1c(N)c(C(N)=O)c2cc3c(nc21)CNC3 [Compound 84] | ≤ 0.2
82 | Cc1ccc(O)c(C)c1-n1c(N)c(C(N)=O)c2cc3c(nc21)C=CCC3 [Compound 114] | ≤ 0.2
